The numbers were not newly measured in US20080195229A1, “Decellularized pericardial tissue” (priority 2007, published 2008), which cites them from elsewhere.

One data set deals with rabbit. The following applies: in vivo, iv.
Data set [1] deals with Chinese hamster ovary (CHO-K1) cells. To be noted: in vitro.
For a further data set, the system named is 3T3 fibroblasts. The following applies: in vitro.

For `C[C@H](CCC(=O)O)[C@H]1CC[C@H]2[C@@H]3CC[C@@H]4C[C@H](O)CC[C@]4(C)[C@H]3C[C@H](O)[C@]12C` [Deoxycholic acid], the solubility in alcohol entry (alcohol) is recorded as “soluble”. For the setting “water”, the solubility in water result is “sparingly soluble”. Moreover, the 50% lethal dose (LD50) in the data set with rabbit is on record as 15 mg/kg.

As to `COC(=O)C1=CO[C@@H](O)[C@@H]2C(CO)=CC[C@H]12` [genipin], the “clastogenic response (genotoxicity)” value in data set [1] is “does not cause clastogenic response”. Further, the “cytotoxicity compared with glutaraldehyde” value with 3T3 fibroblasts was “substantially less cytotoxic than glutaraldehyde”.
